Test results published in patent US10959450B2, “Food composition for relieving symptoms of allergic and autoimmune diseases” (priority 2017, dated 2021).

Tested on: H1N1 flu
Experiment: Clinical Trial 6, influenza patient (H1N1 flu)
Type: in vivo
Settings: person; Tamiflu taken for a week
Source text: They were a patient taking Tamiflu against symptoms of H1N1 flu and taking it for a week.

CCOC(=O)C1=C[C@@H](OC(CC)CC)[C@H](NC(C)=O)[C@@H](N)C1 [Tamiflu]
improvement of symptoms of H1N1 flu: minimal
